Results taken from PubChem BioAssay (NCI).
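Where inhibition never reached the appropriate level, the endpoint shown equals the highest concentration tested. Otherwise, values were interpolated linearly from a five-concentration, 48-hour dose response in 96-well plates. At the GI50, growth is halved. TGI marks complete inhibition of growth.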

What was measured:
Test in all cases: growth of human tumour cells (NCI), 48 h
[1] = system: SK-OV-3 ovarian
[2] = system: NCI-H226 lung
[3] = system: HS 578T breast
[4] = system: OVCAR-8 ovarian
[5] = system: SNB-75 CNS
[6] = system: OVCAR-5 ovarian
[7] = system: MCF7 breast
[8] = system: A498 renal
[9] = system: MOLT-4 leukemia
[10] = system: HT29 colon
[11] = system: NCI-H460 lung
[12] = system: SW-620 colon
[13] = system: HOP-92 NSCLC
[14] = system: TK-10 renal
[15] = system: BT-549 breast
[16] = system: 786-0 renal
[17] = system: A549 NSCLC
[18] = system: UACC-62 melanoma
[19] = system: NCI-H23 lung
[20] = system: HL-60(TB) leukemia
[21] = system: ACHN renal
[22] = system: HCT-15 colon
[23] = system: MDA-MB-435
[24] = system: OVCAR-3 ovarian
[25] = system: SN12C renal
[26] = system: DU-145 prostate
[27] = system: KM12 colon
[28] = system: SK-MEL-2 melanoma
[29] = system: SK-MEL-5 melanoma
[30] = system: UACC-257 melanoma
[31] = system: CAKI-1 renal
[32] = system: SF-268 CNS
[33] = system: NCI/ADR-RES ovarian
[34] = system: HCT-116 colon
[35] = system: HCC-2998 colon
[36] = system: SR leukemia
[37] = system: MDA-MB-231 breast
[38] = system: EKVX NSCLC
[39] = system: OVCAR-4 ovarian
[40] = system: RXF 393 renal
[41] = system: SK-MEL-28 melanoma
[42] = system: MALME-3M melanoma
[43] = system: COLO 205 colon
[44] = system: K-562 leukemia
[45] = system: T-47D breast
[46] = system: HOP-62 NSCLC
[47] = system: UO-31 renal
[48] = system: M14 melanoma
[49] = system: SF-539 CNS
[50] = system: NCI-H522 lung
[51] = system: SNB-19 CNS
[52] = system: IGROV1 ovarian

## CCOP(=O)(CCN1CCN(CCCCCOc2cc3c(cc2OC)C(=O)N2CCC[C@H]2C=N3)CC1)OCC
[1]
  GI50: 23.9 µM
  TGI: 99.8 µM
[2]
  GI50: 17.1 µM
  TGI: 65.5 µM
[3]
  GI50: 3.54 µM
  TGI: 31.1 µM
[4]
  GI50: 31.2 µM
  TGI: > 100 µM
[5]
  GI50: 1.35 µM
  TGI: 8.85 µM
[6]
  GI50: 27.7 µM
  TGI: 76.6 µM
[7]
  GI50: 1.89 µM
  TGI: 23.8 µM
[8]
  GI50: 15 µM
  TGI: 43 µM
[9]
  GI50: 2.16 µM
  TGI: 6.37 µM
[10]
  GI50: 6.84 µM
  TGI: > 100 µM
[11]
  GI50: 6.14 µM
  TGI: 46.1 µM
[12]
  GI50: 4.47 µM
  TGI: 30.5 µM
[13]
  GI50: 12.6 µM
  TGI: 94.9 µM
[14]
  GI50: 22.8 µM
  TGI: > 100 µM
[15]
  GI50: 5.96 µM
  TGI: 31.7 µM
[16]
  GI50: 12.5 µM
  TGI: > 100 µM
[17]
  GI50: 8.55 µM
  TGI: 34.8 µM
[18]
  GI50: 7.86 µM
  TGI: 24.2 µM
[19]
  GI50: 16.6 µM
  TGI: 38.4 µM
[20]
  GI50: 1.82 µM
  TGI: 8.39 µM
[21]
  GI50: 18.5 µM
  TGI: 50.4 µM
[22]
  GI50: 80 µM
  TGI: > 100 µM
[23]
  GI50: 3.36 µM
  TGI: 17.3 µM
[24]
  GI50: 7.48 µM
  TGI: 34.1 µM
[25]
  GI50: 5.18 µM
  TGI: > 100 µM
[26]
  GI50: 17.8 µM
  TGI: 63.3 µM
[27]
  GI50: 12.1 µM
  TGI: 36.3 µM
[28]
  GI50: 12.5 µM
  TGI: 32 µM
[29]
  GI50: 3.62 µM
  TGI: 23.8 µM
[30]
  GI50: 15.8 µM
  TGI: 37.4 µM
[31]
  GI50: 5.84 µM
  TGI: 97.9 µM
[32]
  GI50: 3.53 µM
  TGI: 49.6 µM
[33]
  GI50: > 100 µM
  TGI: > 100 µM
[34]
  GI50: 7.66 µM
  TGI: 80.8 µM
[35]
  GI50: 17.3 µM
  TGI: 38.1 µM
[36]
  GI50: 1.39 µM
  TGI: 4.25 µM
[37]
  GI50: 4.55 µM
  TGI: > 100 µM
[38]
  GI50: 19.5 µM
  TGI: 47.8 µM
[39]
  GI50: 14.9 µM
  TGI: 57.1 µM
[40]
  GI50: 1.77 µM
  TGI: 6.59 µM
[41]
  GI50: 6.35 µM
  TGI: 20.4 µM
[42]
  GI50: 18.4 µM
  TGI: 47.7 µM
[43]
  GI50: 3.39 µM
  TGI: 12.9 µM
[44]
  GI50: 2.37 µM
  TGI: > 100 µM
[45]
  GI50: 2.44 µM
  TGI: 9.38 µM
[46]
  GI50: 23 µM
  TGI: > 100 µM
[47]
  GI50: 17.7 µM
  TGI: 44.8 µM
[48]
  GI50: 8.01 µM
  TGI: 25.8 µM
[49]
  GI50: 3.6 µM
  TGI: 17.7 µM
[50]
  GI50: 1.93 µM
  TGI: 7.8 µM
[51]
  GI50: 5.65 µM
  TGI: > 100 µM
[52]
  GI50: 2.74 µM
  TGI: 18.7 µM
